Test results published in patent US10004701B2, “Methods and compositions for treating infection” (UNIVERSITY OF ROCHESTER, priority 2012, dated 2018).
Where a name gives a salt, the structure may show the parent alone. Read-outs that look alike come from different tables or passages of the source.

Tests used:
Experiment in all cases: AK assay 384-well format, Prestwick library screening
P. aeruginosa = assay type: cell-based, Pseudomonas aeruginosa; conditions: 50 μM final drug concentration; for fold induction at 50 µM: Pseudomonas aeruginosa, 3 h
E. faecium = assay type: cell-based, Enterococcus faecium; conditions: 50 μM final drug concentration; for fold induction at 50 µM: Enterococcus faecium, 3 h
[1] = test system: A. baumannii strain 98-37-09; assay type: cell-based, Acinetobacter baumannii; conditions: 50 μM final drug concentration; for fold induction at 50 µM: Acinetobacter baumannii, 983709, 3 h
K. pneumoniae = assay type: cell-based, Klebsiella pneumoniae; conditions: 50 μM final drug concentration; for fold induction at 50 µM: Klebsiella pneumoniae, 3 h
E. coli = assay type: cell-based, Escherichia coli; conditions: 50 μM final drug concentration; for fold induction at 50 µM: Escherichia coli, 3 h
E. cloacae = assay type: cell-based, Enterobacter cloacae; conditions: 50 μM final drug concentration; for fold induction at 50 µM: Enterobacter cloacae, 3 h
[2] = test system: S. aureus strain USA300-0114; assay type: cell-based, Staphylococcus aureus; conditions: 50 μM final drug concentration; for fold induction at 50 µM: Staphylococcus aureus, USA300, 3 h
[3] = 384-well format, cutoff for positive-scoring molecules 3-fold increase, read-out: AK-based Prestwick Library Screening Results, P. aeruginosa (increase in extracellular AK activity)
[4] = 384-well format, cutoff for positive-scoring molecules 3-fold increase, read-out: AK-based Prestwick Library Screening Results, E. faecium (increase in extracellular AK activity)
[5] = 384-well format, cutoff for positive-scoring molecules 3-fold increase, read-out: AK-based Prestwick Library Screening Results, A. baumannii (increase in extracellular AK activity)
[6] = 384-well format, cutoff for positive-scoring molecules 3-fold increase, read-out: AK-based Prestwick Library Screening Results, K. pneumoniae (increase in extracellular AK activity)
[7] = 384-well format, cutoff for positive-scoring molecules 3-fold increase, read-out: AK-based Prestwick Library Screening Results, E. coli (increase in extracellular AK activity)
[8] = 384-well format, cutoff for positive-scoring molecules 3-fold increase, read-out: AK-based Prestwick Library Screening Results, E. cloacae (increase in extracellular AK activity)
[9] = 384-well format, cutoff for positive-scoring molecules 3-fold increase, read-out: AK-based Prestwick Library Screening Results, S. aureus (increase in extracellular AK activity)
[10] = planktonic, cutoff for positive 3-fold increase, read-out: AK-based Prestwick Library Screening Results, P. aeruginosa (fold increase in extracellular AK activity)
[11] = planktonic, cutoff for positive 3-fold increase, read-out: AK-based Prestwick Library Screening Results, E. faecium (fold increase in extracellular AK activity)
[12] = planktonic, cutoff for positive 3-fold increase, read-out: AK-based Prestwick Library Screening Results, A. baumannii (fold increase in extracellular AK activity)
[13] = planktonic, cutoff for positive 3-fold increase, read-out: AK-based Prestwick Library Screening Results, K. pneumoniae (fold increase in extracellular AK activity)
[14] = planktonic, cutoff for positive 3-fold increase, read-out: AK-based Prestwick Library Screening Results, E. coli (fold increase in extracellular AK activity)
[15] = planktonic, cutoff for positive 3-fold increase, read-out: AK-based Prestwick Library Screening Results, E. cloacae (fold increase in extracellular AK activity)
[16] = planktonic, cutoff for positive 3-fold increase, read-out: AK-based Prestwick Library Screening Results, S. aureus (fold increase in extracellular AK activity)
[17] = planktonic, cutoff for positive-scoring molecules 3-fold increase
[18] = planktonic, cutoff for positive-scoring molecules 3-fold increase, read-out: AK-based Prestwick Library Screening Results, P. aeruginosa (fold increase in extracellular AK activity)
[19] = planktonic, cutoff for positive-scoring molecules 3-fold increase, read-out: AK-based Prestwick Library Screening Results, E. faecium (fold increase in extracellular AK activity)
[20] = planktonic, cutoff for positive-scoring molecules 3-fold increase, read-out: AK-based Prestwick Library Screening Results, A. baumannii (fold increase in extracellular AK activity)
[21] = planktonic, cutoff for positive-scoring molecules 3-fold increase, read-out: AK-based Prestwick Library Screening Results, K. pneumoniae (fold increase in extracellular AK activity)
[22] = planktonic, cutoff for positive-scoring molecules 3-fold increase, read-out: AK-based Prestwick Library Screening Results, E. coli (fold increase in extracellular AK activity)
[23] = planktonic, cutoff for positive-scoring molecules 3-fold increase, read-out: AK-based Prestwick Library Screening Results, E. cloacae (fold increase in extracellular AK activity)
[24] = planktonic, cutoff for positive-scoring molecules 3-fold increase, read-out: AK-based Prestwick Library Screening Results, S. aureus (fold increase in extracellular AK activity)
[25] = cutoff for positive-scoring molecules 3-fold increase

## Cc1ccc(/C(=C\CN2CCCC2)c2ccccn2)cc1 [Triprolidine hydrochloride]
P. aeruginosa; [3]
  fold induction at 50 µM: 1
E. faecium; [4]
  fold induction at 50 µM: 1
[1]; [5]
  fold induction at 50 µM: 0.9
K. pneumoniae; [6]
  fold induction at 50 µM: 0.7
E. coli; [7]
  fold induction at 50 µM: 1
E. cloacae; [8]
  fold induction at 50 µM: 1
[2]; [9]
  fold induction at 50 µM: 0.6

## CO[C@H]1C[C@H](O[C@H]2[C@H](C)[C@@H](O[C@@H]3O[C@H](C)C[C@H](N(C)C)[C@H]3OC(C)=O)[C@@H](C)C[C@@]3(CO3)C(=O)[C@H](C)[C@@H](OC(C)=O)[C@@H](C)[C@@H](C)OC(=O)[C@@H]2C)O[C@@H](C)[C@@H]1OC(C)=O [Troleandomycin]
P. aeruginosa; [3]
  fold induction at 50 µM: 0.7
E. faecium; [4]
  fold induction at 50 µM: 1
[1]; [5]
  fold induction at 50 µM: 0.8
K. pneumoniae; [6]
  fold induction at 50 µM: 0.6
E. coli; [7]
  fold induction at 50 µM: 0.9
E. cloacae; [8]
  fold induction at 50 µM: 1.1
[2]; [9]
  fold induction at 50 µM: 6.5

## Cc1c(C)c2c(c(C)c1O)CCC(C)(C(=O)O)O2 (centres unmarked) [Trolox]
P. aeruginosa; [10]
  fold induction at 50 µM: 1.1
E. faecium; [11]
  fold induction at 50 µM: 1.1
[1]; [12]
  fold induction at 50 µM: 1.1
K. pneumoniae; [13]
  fold induction at 50 µM: 1.1
E. coli; [14]
  fold induction at 50 µM: 1.1
E. cloacae; [15]
  fold induction at 50 µM: 1.6
[2]; [16]
  fold induction at 50 µM: 1.6

## CN1[C@@H]2CC[C@H]1C[C@@H](O)C2 [Tropine]
P. aeruginosa; planktonic P. aeruginosa, […], read-out: AK-based Prestwick library screening result, P. aeruginosa (fold increase in extracellular AK activity)
  fold induction at 50 µM: 0.8
E. faecium; planktonic E. faecium, […], read-out: AK-based Prestwick library screening result, E. faecium (fold increase in extracellular AK activity)
  fold induction at 50 µM: 0.9
[1]; planktonic A. baumannii, […], read-out: AK-based Prestwick library screening result, A. baumannii (fold increase in extracellular AK activity)
  fold induction at 50 µM: 0.8
K. pneumoniae; planktonic K. pneumoniae, […], read-out: AK-based Prestwick library screening result, K. pneumoniae (fold increase in extracellular AK activity)
  fold induction at 50 µM: 0.8
E. coli; planktonic E. coli, […], read-out: AK-based Prestwick library screening result, E. coli (fold increase in extracellular AK activity)
  fold induction at 50 µM: 0.9
E. cloacae; planktonic E. cloacae, […], read-out: AK-based Prestwick library screening result, E. cloacae (fold increase in extracellular AK activity)
  fold induction at 50 µM: 1.2
[2]; planktonic S. aureus, […], read-out: AK-based Prestwick library screening result, S. aureus (fold increase in extracellular AK activity)
  fold induction at 50 µM: 0.7

## CN1[C@@H]2CC[C@H]1C[C@@H](OC(=O)c1c[nH]c3ccccc13)C2 [Tropisetron HCl]
P. aeruginosa; [10]
  fold induction at 50 µM: 1.1
E. faecium; [11]
  fold induction at 50 µM: 1
[1]; [12]
  fold induction at 50 µM: 1.3
K. pneumoniae; [13]
  fold induction at 50 µM: 0.8
E. coli; [14]
  fold induction at 50 µM: 1.1
E. cloacae; [15]
  fold induction at 50 µM: 1.3
[2]; [16]
  fold induction at 50 µM: 0.9

## COc1cc2c3cc1Oc1cc(ccc1O)C[C@@H]1c4c(cc(OC)c(O)c4Oc4ccc(cc4)C[C@@H]3N(C)CC2)CC[N+]1(C)C.Cl.O.O.O.O.O.[Cl-] [Tubocurarine chloride pentahydrate (+)]
P. aeruginosa; planktonic P. aeruginosa, 384-well, […]
  AK-based Prestwick Library Screening Results: P. aeruginosa (increase in extracellular AK activity): 0.6
E. faecium; planktonic E. faecium, 384-well, […]
  AK-based Prestwick Library Screening Results: E. faecium (increase in extracellular AK activity): 0.9
[1]; planktonic A. baumannii, 384-well, […]
  AK-based Prestwick Library Screening Results: A. baumannii (increase in extracellular AK activity): 0.7
K. pneumoniae; planktonic K. pneumoniae, 384-well, […]
  AK-based Prestwick Library Screening Results: K. pneumoniae (increase in extracellular AK activity): 0.6
E. coli; planktonic E. coli, 384-well, […]
  AK-based Prestwick Library Screening Results: E. coli (increase in extracellular AK activity): 0.7
E. cloacae; planktonic E. cloacae, 384-well, […]
  AK-based Prestwick Library Screening Results: E. cloacae (increase in extracellular AK activity): 0.6
[2]; planktonic S. aureus, 384-well, […]
  AK-based Prestwick Library Screening Results: S. aureus (increase in extracellular AK activity): 0.5

## CO[C@@H]1C=C2CCN(C)[C@@H]2C2c3cc4c(cc3C(=O)OC21)OCO4.O=[N+]([O-])O (some centres unmarked) [Ungerine nitrate]
P. aeruginosa; [17]
  AK-based Prestwick Library Screening Results, P. aeruginosa (fold increase in extracellular AK activity): 1.1
E. faecium; [17]
  AK-based Prestwick Library Screening Results, E. faecium (fold increase in extracellular AK activity): 1.0
[1]; [17]
  AK-based Prestwick Library Screening Results, A. baumannii (fold increase in extracellular AK activity): 1.1
K. pneumoniae; [17]
  AK-based Prestwick Library Screening Results, K. pneumoniae (fold increase in extracellular AK activity): 1.0
E. coli; [17]
  AK-based Prestwick Library Screening Results, E. coli (fold increase in extracellular AK activity): 1.3
E. cloacae; [17]
  AK-based Prestwick Library Screening Results, E. cloacae (fold increase in extracellular AK activity): 1.4
[2]; [17]
  AK-based Prestwick Library Screening Results, S. aureus (fold increase in extracellular AK activity): 1.2

## COc1ccccc1N1CCN(CCCNc2cc(=O)n(C)c(=O)n2C)CC1 [Urapidil hydrochloride]
P. aeruginosa; [18]
  fold induction at 50 µM: 1
E. faecium; [19]
  fold induction at 50 µM: 0.9
[1]; [20]
  fold induction at 50 µM: 1
K. pneumoniae; [21]
  fold induction at 50 µM: 0.7
E. coli; [22]
  fold induction at 50 µM: 1
E. cloacae; [23]
  fold induction at 50 µM: 1.1
[2]; [24]
  fold induction at 50 µM: 0.9

## C[C@H](CCC(=O)O)[C@H]1CC[C@H]2[C@@H]3[C@@H](O)C[C@@H]4C[C@H](O)CC[C@]4(C)[C@H]3CC[C@]12C [Urosiol]
P. aeruginosa; [25]
  AK-based Prestwick Library Screening Results, P. aeruginosa (fold increase in extracellular AK activity): 1.2
E. faecium; [25]
  AK-based Prestwick Library Screening Results, E. faecium (fold increase in extracellular AK activity): 1.0
[1]; [25]
  AK-based Prestwick Library Screening Results, A. baumannii (fold increase in extracellular AK activity): 1.3
K. pneumoniae; [25]
  AK-based Prestwick Library Screening Results, K. pneumoniae (fold increase in extracellular AK activity): 1.0
E. coli; [25]
  AK-based Prestwick Library Screening Results, E. coli (fold increase in extracellular AK activity): 1.2
E. cloacae; [25]
  AK-based Prestwick Library Screening Results, E. cloacae (fold increase in extracellular AK activity): 1.4
[2]; [25]
  AK-based Prestwick Library Screening Results, S. aureus (fold increase in extracellular AK activity): 1.2

## C[C@H]1[C@H](C)CC[C@]2(C(=O)O)CC[C@]3(C)C(=CC[C@@H]4[C@@]5(C)CC[C@H](O)C(C)(C)[C@@H]5CC[C@]43C)[C@H]12 [Ursolic acid]
P. aeruginosa; [3]
  fold induction at 50 µM: 0.4
E. faecium; [4]
  fold induction at 50 µM: 2.8
[1]; [5]
  fold induction at 50 µM: 0.5
K. pneumoniae; [6]
  fold induction at 50 µM: 0.4
E. coli; [7]
  fold induction at 50 µM: 0.4
E. cloacae; [8]
  fold induction at 50 µM: 0.5
[2]; [9]
  fold induction at 50 µM: 0.1

## Nc1ncnc2c1ncn2[C@@H]1O[C@H](CO)[C@@H](O)[C@@H]1O [Vidarabine]
P. aeruginosa; [18]
  fold induction at 50 µM: 1
E. faecium; [19]
  fold induction at 50 µM: 1.1
[1]; [20]
  fold induction at 50 µM: 1
K. pneumoniae; [21]
  fold induction at 50 µM: 0.7
E. coli; [22]
  fold induction at 50 µM: 1.1
E. cloacae; [23]
  fold induction at 50 µM: 1.8
[2]; [24]
  fold induction at 50 µM: 1.5
